For 88 compounds, melting point results are on record in a melting point compilation (Tetko et al.; mined from patent text by program, amines drawn as free bases though some values may be those of a salt).

Usually melting point stands for the temperature of the solid-liquid transition. Compound `CCOC(=O)c1ccc(S(C)(=O)=O)nc1C(F)(F)F` displayed a melting point of 70 to 72 °C.
In the case of `CSc1nc(C#N)c(I)c(C(F)(F)F)n1` it was 68 to 69 °C; in that of `CCc1noc(-c2cc3c(cn2)[nH]c2ccccc23)n1`, 146 to 149 °C.
In the case of `COCCOC(=O)C1=C(C(F)F)NC(C)=C(C(=O)OC(C)C)C1c1cccc([N+](=O)[O-])c1` (stereo not drawn), the melting point fell in the range of 146 to 147 °C.
Consider `CCCP(=O)(CCC)Cc1ccc(NC(=O)C2=Cc3cc(-c4ccc(C)cc4)ccc3OCC2)cc1`, for which the melting point is 219 to 220 °C.
`Cc1oc(=O)oc1COC(=O)c1oc2cccc(O)c2c1C` registered a melting point of 168 to 170 °C.
The compound `COc1cn(C(C)=O)c2ccc(F)cc12` had a melting point of 124 to 125 °C.
Take `N#Cc1ccc(C(O)C23CCCN2C(=O)N(c2cc(Cl)cc(Cl)c2)C3=O)cc1` (stereo not drawn): the melting point came out at 184 °C.
`CC(Cc1cccc2ccccc12)(Cc1cccc2ccccc12)C(=O)NC(C)(Cc1c[nH]c2ccccc12)C(=O)O` (stereo not drawn): the melting point fell in the range of 195 to 197 °C.
With `C#CCNC(=O)c1c(Br)cccc1[Si](C)(C)C`, the melting point was 120 to 121 °C.
As to `CC1=C(C(=O)O)C(c2cccc([N+](=O)[O-])c2)N(C(=O)N(C)C)C(=O)N1` (stereo not drawn), the melting point was 193 to 195 °C.
The compound `CCCCc1nc2c(N)nc3ccccc3c2s1` registered a melting point of 149 to 151 °C.
In the case of `CC(C)OC(=O)C=Cc1ccc(N)cc1` it was 78 to 80 °C; in that of `COc1ccc2c(c1)C1=C(SCC3(CCN(CC(O)COc4ccc(Cl)cc4)CC3)O1)C(=O)C2=O` (stereo not drawn), 109 to 110 °C.
As for `O=C1CCC(CCN2CC(N3CCOCC3)C2)(c2ccc(Cl)c(Cl)c2)CN1Cc1ccc(-c2ccccc2)cc1` (stereo not drawn), the melting point fell in the range of 72 to 82 °C.
`O=C(O)Cn1c(=O)c(=O)[nH]c2cc([N+](=O)[O-])c(-n3ccc(CN4CCN(Cc5ccccc5)CC4)c3)cc21` came in with a melting point above 230 °C.
With `CNCCCc1nc2ccccc2[nH]1`, the melting point lay within 134 to 136 °C.
Compound `Cc1c(CC#N)cc(C(C)(C)C)c(O)c1C` yielded a melting point of 126 to 128 °C.
As for `Cc1c(-c2ccncc2)[nH]c2c1C(=O)CC(C)(C)C2`, the melting point lay within 241 to 242 °C.
The compound `O=C(NCCCCC1CCSS1)NN1CCCCC1` (stereo not drawn) registered a melting point of 67 to 69 °C.
For the compound `C=CC(=O)Oc1ccc(CNS(C)(=O)=O)cc1`, the melting point lay within 112 to 115 °C.
Compound `O=c1[nH]c(CSCc2ccccc2)nc2nccnc12` gave a melting point of 224 to 226 °C.
`Cc1ccc(S(=O)(=O)C#CBr)cc1` registered a melting point of 99 to 101 °C.
Take `Cn1cc(-c2cc3nccnc3[nH]2)cn1`: the melting point was 232 to 234 °C.
Compound `CCOC(=O)Nc1cc(-c2ccccc2)n(-c2ccc(S(N)(=O)=O)cc2)n1` had a melting point of 121 to 128 °C.
For `CCOCCn1c(CCl)nc2ccccc21`, the melting point is 75.5 to 77 °C.
Take `Cc1cc2cc(C3(O)CCN(C)CC3)ccc2o1`: the melting point was 118 to 120 °C.
In the case of `COc1nc(NC(=O)NS(=O)(=O)c2ccccc2C(=O)OC(C)C)nc(C(F)(F)F)n1` it was 182 to 185 °C.
Consider `OC(CNCc1ccccc1)COc1ccc(CCOCC2CC2)cc1` (stereo not drawn), for which the melting point was in the range of 75 to 76 °C.
Consider `CCON=C(C)c1ccc2c(c1)ncn2-c1cccc(COCc2ncnn2C)c1`, for which the melting point is 130 to 134 °C.
Regarding `CC(=O)c1ccc(OC2CCOCC2)cc1O`, the melting point was in the range of 99 to 104 °C.
In the case of `O=C(Nc1c[nH]nc1C(=O)NCc1ccc(-c2ccccc2)cc1)c1ccccn1` it was 227 to 228 °C; in that of `OC1(C#Cc2ccc(-c3ccccn3)cc2)CN2CCC1CC2` (stereo not drawn), 205 to 206 °C; in that of `CCN(CC)CCOc1ccc2c(c1)C(=O)c1ccc(OCCN(CC)CC)cc1C2=O`, 169 to 170 °C.
`O=c1nc(-c2ccco2)sc2ccccc12` registered a melting point of 170 to 172 °C.
Turning to `O=C(CC1=NCCN1)N1CCOc2ccc(S(=O)(=O)c3ccccc3)cc21`, the melting point was 114 to 116 °C.
As for `COc1nc(C)cnc1N(C(=O)OCC(C)C)S(=O)(=O)c1cccnc1-c1ccc(CBr)cc1`, the melting point was in the range of 125 to 128 °C.
`CCc1nnc(/C=C/c2cn(-c3ccccc3)nc2OCc2ccc(OCc3nc(-c4ccco4)oc3C)c(OC)c2)o1` showed a melting point of 183 to 184 °C.
For `CCOC(=O)c1c(C)nsc1NC(=O)NC` the value was 187 to 189 °C; for `CC(=CN1C(=O)c2ccccc2C1=O)c1ccco1`, 136 to 137 °C; for `COc1cc2c(cc1OC)C(C)Cn1c-2cc(=Nc2c(C)cc(C)cc2C)n(C)c1=O` (stereo not drawn), 156 to 157 °C.
Turning to `COC(=O)C(Cc1ccc(O)c(O)c1)NC(=O)OC(C)(C)C` (stereo not drawn), the melting point lay in the range of 132 to 135 °C.
`CCN1CCN(S(=O)(=O)c2ccc(C(CC3CCCC3)C(=O)Nc3nc4ccc(OC)nc4s3)cc2)CC1` (stereo not drawn) returned a melting point of 106 to 110 °C.
Turning to `O=C1C(=C2CCCN2Cc2ccccc2)c2ccccc2N1c1cccc(Cl)c1`, the melting point lay within 72 to 75 °C.
The compound `CCC[C@H]1CC[C@H](C(=O)O)CC1` returned a melting point of 97 to 98 °C.
The compound `Cc1nc2c3c(ccn2c1C)[C@@H](OCC(F)(F)F)[C@H](O)[C@@H](c1ccccc1)N3` came in with a melting point of 178 to 180 °C.
In turn, `O=C(O)Cn1cc(Cc2nc3c(F)c(F)cc(F)c3s2)c2ccc(F)cc21` showed a melting point of 200 to 203 °C.
Compound `C=CCOc1cccc(-c2c(O)c3ccc(Cl)cc3[nH]c2=O)c1` displayed a melting point above 300 °C.
In the case of `OP(O)C(NC(c1ccccc1)c1ccccc1)c1c[nH]c2ccccc12` (stereo not drawn), the melting point came to 154 °C.
Consider `Cc1cc2c(s1)CCCC1CC(=O)N(c3ccccc3)N=C21` (stereo not drawn), for which the melting point is 102 to 103 °C.
As for `CC(=O)NC[C@H]1CN(c2ccc(-c3nc(Cn4cccn4)cs3)c(F)c2)C(=O)O1`, the melting point lay in the range of 178 to 180 °C.
For the compound `CC1CC2=C(OC(NC=N)C2)c2ccc(=O)[nH]c21` (stereo not drawn), the melting point is above 250 °C.
Turning to `O=C(O)COc1ccc(OC(F)(F)F)cc1C(=S)NCc1cccc([N+](=O)[O-])c1`, the melting point lay in the range of 158 to 161 °C.
For `N=C1N(Cc2ccc(Cl)nc2)CCN1[N+](=O)[O-]`, the melting point was determined as 81 °C.
Regarding `COc1cc2c(cc1-c1nc3cc(-c4ccccc4)ccc3o1)oc1ccccc12`, the melting point was in the range of 155 to 160 °C.
In the case of `O=C(O)COc1ccc2c(c1)-c1nc(S(=O)(=O)C(c3ccccc3)c3ccccc3)sc1CC2` it was 169 to 170 °C; in that of `COCCNC(=O)c1cccc2c1C1(COc3cc4c(cc31)OCCO4)C(=O)N2C` (stereo not drawn), 97 to 100 °C; in that of `NC(=O)NC[C@@H]1CCCc2cc(Sc3cccc(F)c3)ccc21`, 115 to 116 °C.
In turn, `CCOC(C)O[C@H]1C(=O)N(C(=O)OC(C)(C)C)[C@H]1C=Cc1ccccc1` (stereo partly drawn) showed a melting point of 69 to 73 °C.
`O=c1[nH]c(-c2ccc(CCN3CCN(c4cccc(C(F)(F)F)c4)CC3)cc2)cs1` displayed a melting point of 285 to 287 °C.
In the case of `CC1CCN(c2ccc(C(=O)Nc3ccc4nc(CN5CCCC5)ccc4c3)cc2)CC1` it was 200 to 202 °C.
In the case of `Cc1nc(Cc2ccccc2)cc(C(=O)O)c1OCCCN(C)C` it was 157 °C.
For `Cc1cc(C(=O)N[C@H]2CC[C@H](CCN3CCN(c4nccc5c4OCC5)CC3)CC2)on1` the value was 199 °C; for `O=[N+]([O-])c1ccc(NC2CC2)nc1Nc1ccc2[nH]ncc2c1`, 237 to 240 °C; for `CCOC(=O)NC1(c2cccs2)CCC2(CC1)OCCO2`, 113 to 117 °C.
`Cc1cc(F)ccc1-c1cc(N2CCS(=O)(=O)CC2)ncc1N(C)C(=O)C(C)(C)c1cc(C(F)(F)F)cc(C(F)(F)F)c1` yielded a melting point of 135 to 138 °C.
The compound `CNN1c2cc(Cl)cc(Cl)c2[C@@H](C(=O)Nc2ccccc2)C[C@@H]1C(=O)O` (relative stereo) showed a melting point of 139 to 140 °C.
`Nc1nc(-c2ccc(CCN3CCN(c4cccc5cccnc45)CC3)cc2)cs1` registered a melting point above 225 °C.
Compound `COc1nnc2n1C=Cc1ccccc1C2` showed a melting point of 160 to 161 °C.
For `C=CCOc1ccc(S(=O)(=O)Nc2ccc(Cl)cc2C(=O)c2ccccc2Cl)cc1` the value was 96 to 97 °C; for `O=C(OCc1ccccc1O)c1cc(O)c2c(c1)C(=O)c1cccc(O)c1C2=O`, 125 to 130 °C; for `CCc1cccc(C(C)C)c1N1C(=O)CCN(CC)C1=S`, 129 to 132 °C.
As to `CP1(=O)c2ccccc2CN1c1ccccc1` (stereo not drawn), the melting point was in the range of 94 to 97 °C.
With `O=C(O)c1csc2ccc(O)cc12`, the melting point is 262 to 263 °C.
For `CN(C)c1ccc(C2=NC[C@@H](OC(=O)Nc3ccccc3)[C@H](c3ccccc3)O2)cc1` (racemic) the value was 172 °C.
Compound `Cc1nc2ccc(Sc3cccc4cnccc34)cc2o1` registered a melting point of 140 to 142 °C.
Regarding `N#CCCn1cccc1C1=CC(=O)c2ncccc2C1=O`, the melting point was 166 to 167 °C.
Compound `CCOCN1N=NC(=S)C1C` (stereo not drawn) came in with a melting point of 137 to 138 °C.
The compound `CN1CCC(NC(c2cccc(C(F)(F)F)c2)c2nc3ccccc3[nH]2)CC1` (stereo not drawn) displayed a melting point of 90 °C.
Regarding `CC(C(=O)O)c1ccc(N=c2sccn2C)c(Cl)c1` (stereo not drawn), the melting point is 132 to 133 °C.
With `CC(C)(CCC(F)(F)C(F)(F)C(F)(F)C(F)(F)C(F)(F)C(F)(F)C(F)(F)C(F)(F)F)OC(=O)N1CCC(C(=O)O)CC1`, the melting point was in the range of 140 to 142 °C.
For the compound `CCNc1ccc2c(c1)CN(c1c(F)cc3c(=O)c(C(=O)O)cn4c3c1OCC4C)C2` (stereo not drawn), the melting point is above 300 °C.
In turn, `CCOC(=O)c1cc(CC)c2ccc(C(C)C)ccc1-2` came in with a melting point of 48 to 49 °C.
In turn, `CC(C)c1csc(/C=C/c2cc(NC(=O)Cc3ccccc3C(=O)O)ccc2Cl)n1` yielded a melting point of 204 to 206 °C.
For `O=S(=O)(c1ccccc1Cl)N1CCNc2ncc(I)cc21` the value was 146 to 147 °C; for `CCOC(=O)Cn1ccc2ccc3c(c21)CCN(C(=O)OC(C)(C)C)CC3`, 111 to 115 °C; for `O=C1N(Cc2ccc(C(F)(F)F)o2)c2ccc(F)cc2C1(CO)c1cc2c(cc1O)OCO2` (stereo not drawn), 92 to 95 °C.
The compound `CC(C)(C)c1csc(C(C#N)=C(O)c2c(F)cccc2F)n1` had a melting point of 207 to 209 °C.
